Assay results taken from patent US11458122B2, “Methods for treating diseases and nerve injuries” (CHILDREN'S HOSPITAL MEDICAL CENTER, priority 2017, dated 2022).

Assays:
[1] = system: Egr2 expression in primary rat SCs; experiment: Small molecule epigenetic compound screening: Egr2 expression by qRT-PCR; format: cell-based; conditions: 8 hours, read-out: Egr2 expression over vehicle treatment
Description: Each compound in the Epigenetics compound library (Cayman, 11076) was diluted to a final concentration of 5 μM in the medium containing DMEM/0.5% FBS with L-glutamine and penicillin/streptomycin. SCs were treated with diluted compounds for 8 hours. Treated SCs were washed with PBS and then treated with SingleShot Cell Lysis Kite (172-5080, BioRad) following the manufacturer's instructions. The cell lysates from each well were collected for qRT-PCR by using iTaq Universal SYBR Green One-Step Kit (BioRad 172-5150,) following the instructions. Each compound was tested in triplicate.
EGR2 is a pro-myelinating regulator that serves an indicator of myelinogenic potential. We developed an unbiased gene expression-based assay using real-time quantitative PCR indexing of Egr2 to identify inhibitors of epigenetic enzymes that […] SC maturation. Cultured rat SCs were treated a library of epigenetics compounds targeting enzymes including methyltransferases, demethylases, histone acetyltransferases, histone deacetylases (HDACs), and acetylated histone regulators.

[2] = system: HDAC3 expression in primary rat SCs; experiment: HDAC3 expression in primary SCs treated with NRG1 and gefitinib; format: cell-based; conditions: combined with NRG1
Description: (§1) For western blotting, the perineurium and epineurium were removed from sciatic nerves prior to snap-freezing and storage at −80° C. Sciatic nerves and rat SCs were lysed in RIPA buffer, containing protease and phosphatase inhibitors. […] GAPDH (Millipore MAB374) was used as an input control. […] Corresponding secondary antibodies conjugated to HRP were from Jackson ImmunoResearch Laboratories (catalog numbers 111-035-144 and 111-035-003).
PCR primer sequences are available upon request.
(§2) Treatment of primary rat SCs with the recombinant NRG1 type III for 1 hour led to upregulation of HDAC3 expression (FIG. 5F). This effect appeared to be occluded by a NRG1 signaling inhibitor gefitinib (FIG. 5G), which blocks the signaling of ERBB2/3 receptors activated by NRG1 engagement. Conversely, HDAC3 overexpression inhibited phosphorylation of AKT and ERK induced by NRG1 in SCs (FIG. 5E).

injured sciatic nerves [3] = experiment: Sciatic nerve transection injury: remyelination by immunostaining and EM; conditions: for regeneration tracks within the tissue bridge: Dpi 6; for percentages of MBP myelinating axons entering the bridge: Dpi 7 vs vehicle; for myelin sheath thickness in the regenerating bridge / percentage of Ki67+ cells / proportion of EGR2+ maturing SCs in the tissue bridge: Dpi 14; for myelinated axons: Dpi 14 vs vehicle; for myelin thickness of the intact sciatic nerves: uninjured nerves of adult mice, Dpi 35
injured sciatic nerves [4] = experiment: Compound muscle action potential recording after sciatic nerve transection; format: in vivo, mice; conditions: for CMAP amplitude / conduction velocity: Dpi 18, two weeks treatment
Description: CMAPs were amplified and obtained using a Micro 1401 data acquisition unit and analyzed using Spike2 software (<<http://ced.co.uk/products/spkovin>>). Three successive electrical stimulations of the sciatic nerve at 2 mA (0.25-0.5 Hz, 0.1 ms duration) were initiated immediately proximal to the tibial, sural and common peroneal branches via a stimulus isolator connected to the Micro 1401. Conduction velocity was calculated after determining the latency of CMAP onset relative to the stimulus artifact induced by electrical stimulation of the sciatic nerve and the distance between recording and stimulating electrodes measured directly on the nerve. Peak CMAP amplitude and CMAP duration were calculated from each stimulation paradigm. The average of the stimulations of the sciatic nerve for each paradigm were obtained and then averaged across animals.
At Dpi 18, CMAP activity was barely detectable after electrical stimulation of vehicle-treated injured nerves.

[5] = PDA106 100 mg/kg, RGFP966 10 mg/kg
[6] = system: SCs isolated from neonatal rat sciatic nerve; experiment: SC cultures treated with HDAC inhibitors: morphology, MPZ/phalloidin immunostaining, qRT-PCR; conditions: 24 hours
[7] = cited from earlier work
sciatic nerves = experiment: HDAC3 inhibitors in neonatal mice: developmental myelination of sciatic nerves
optic nerve [8] = experiment: Optic tract transection: axon regeneration by CTB tracing; format: in vivo, mice; conditions: 10 mg/kg, 28 days after injury
Description: Axon regeneration was assayed by examining axonal fibers labeled with the anterograde tracer, cholera toxin β (CTB, shown in white color), in the optic nerve sections across the lesion site.

optic nerve [9] = experiment: Optic nerve crush injury: CD68 inflammatory microglia/macrophage cells; format: in vivo, mice; conditions: 10 mg/kg i.p., 10 dpi vs DMSO
From the text: Crush injury to the optic nerves of mice (wild type mice) was accomplished with the aid of a pair of cross-action forceps, applying a crush injury to the optic nerve at about 2 mm from the eyeball for about 3 seconds in wildtype mice.

rat SC cultures = experiment: Western blotting of PI3K/AKT/ERK signalling and Ac-PTEN in SC cultures; format: cell-based
Description: as §1
The hypermyelinating phenotype observed in Hdac3-cKO mice resembles that of mice overexpressing NRG1 type III. […] Indeed, we detected an increase in the levels of phosphorylated AKT, PI3K, and ERK in Hdac3-cKO nerves at P13 compared to controls (FIG. 5B).
as §2

[10] = Experimental autoimmune encephalomyelitis (EAE) induced by MOG35-55; format: in vivo, mice
Description: 8-week-old female C57BL/6 (Charles River lab) mice received injections of 200 μg of myelin oligodendrocyte glycoprotein (MOG) 35-55 peptide emulsified in complete Freund's adjuvant (BD Biosciences), supplemented with 600 μg of Mycobacterium tuberculosis (strain H37Ra; BD Biosciences). 24 and 72 hours after immunization, mice were given two intraperitoneal injections of 400 ng of pertussis toxins (List Biological Laboratories, Cat # NC9675592). EAE onset was monitored daily and scored with Clinical scores (0=healthy; 1=flaccid tail; 2=ataxia and/or paresis of hindlimbs; 3=paralysis of hindlimbs and/or paresis of forelimbs; 4=tetraparalysis; 5=moribund or death).
In the experimental autoimmune encephalomyelitis (EAE) demyelinating mouse model induced by myelin peptide MOG35-55, the most commonly used animal model of multiple sclerosis (BITTNER et al., “Myelin oligodendrocyte glycoprotein (MOG35-55) induced experimental autoimmune encephalomyelitis (EAE) in C57BL/6 mice” J Vis Exp. (2014) Vol. 86, Article 51275 (doi: 10.3791/51275)), HDAC3 inhibitor administration improved motor function reflected in clinical scores as well as in remyelination.

Question: For `CCOC(=O)CCNc1cc(N2CCc3ccccc3CC2)nc(-c2ccccn2)n1` [GSK-J4, Ethyl 3-((6-(4,5-dihydro-1H-benzo[d]azepin-3(2H)-yl)-2-(pyridin-2-yl)pyrimidin-4-yl)amino)propanoate], which fold induction at 5 µM [1] is on record?
Answer: ≥ 5

Question: With `COc1cc2c(NC3CCN(CC4CCCCC4)CC3)nc(N3CCCN(C(C)C)CC3)nc2cc1OCCCN1CCCCC1` [UNC0631, N-[1-(cyclohexylmethyl)-4-piperidinyl]-2-[hexahydro-4-(1-methylethyl)-1H-1,4-diazepin-1-yl]-6-methoxy-7-[3-(1-piperidinyl)propoxy] 4-quinazolinamine] as the compound, how does the fold induction at 5 µM [1] read?
Answer: ≥ 5

Question: For `CCC(=O)CCCCC[C@@H]1NC(=O)[C@H]2CCCCN2C(=O)[C@H]([C@@H](C)CC)NC(=O)[C@H](Cc2cn(OC)c3ccccc23)NC1=O` [apicidin, Cyclo[(2S)-2-amino-8-oxodecanoyl-1-methoxy-L-tryptophyl-L-isoleucyl-(2R)-2-piperidinexcarbonyl]], which fold induction at 5 µM [1] is on record?
Answer: ≥ 5

Question: With `COc1cc2c(NC3CCN(C4CCCCC4)CC3)nc(N3CCCN(C(C)C)CC3)nc2cc1OCCCN1CCCCC1` [UNC0646, N-(1-Cyclohexyl-4-piperidinyl)-2-[hexahydro-4-(1-methylethyl)-1H-1,4-diazepin-1-yl]-6-methoxy-7[3-(1-piperidinyl)propoxy]-4-quinazolinamine] as the compound, how does the fold induction at 5 µM [1] read?
Answer: ≥ 5

Question: With `CN(C)c1ccc(C(=O)NCCCCCC(=O)NO)cc1` [CAY10398, 4-(dimethylamino)-N-[6-(hydroxyamino)-6-oxohexyl]-benzamide] as the compound, how does the fold induction at 5 µM [1] read?
Answer: ≥ 5

Question: With `COc1cc2ncnc(Nc3ccc(F)c(Cl)c3)c2cc1OCCCN1CCOCC1` [gefitinib] as the compound, how does the “NRG1-induced upregulation of HDAC3 expression” value [2] read?
Answer: occluded

Question: For `Clc1ccc(N/N=C(\c2ccccc2)c2ccccn2)nc1` [JIB-04, (E)-N-(5-Chloro-pyridin-2-yl)-N'-(phenyl-pyridin-2-yl-methylene)-hydrazine], which fold induction at 5 µM [1] is on record?
Answer: ≥ 5

Question: Which results are given for `Nc1cc(F)ccc1NC(=O)/C=C/c1cnn(C/C=C/c2ccccc2)c1` [RGFP966, (2E)-N-(2-Amino-4-fluorophenyl)-3-[(2E)-1-(3-phenyl-2-propen-1-yl)-1H-pyrazol-4-yl]-2-propenamide]?
Answer: regeneration tracks within the tissue bridge (injured sciatic nerves [3]): opaque regeneration tracks were observed; percentages of MBP myelinating axons entering the bridge (injured sciatic nerves [3]): significantly higher; myelin sheath thickness in the regenerating bridge (injured sciatic nerves [3]): thicker myelin sheaths; percentage of Ki67+ cells (injured sciatic nerves [3]): decreased; proportion of EGR2+ maturing SCs in the tissue bridge (injured sciatic nerves [3]): increased; myelinated axons (injured sciatic nerves [3]): increase; myelin thickness of the intact sciatic nerves (injured sciatic nerves [3]): does not affect; CMAP amplitude (injured sciatic nerves [4]): increase; conduction velocity (injured sciatic nerves [4]): increase; motor nerve function (CMAP recordings) (injured sciatic nerves [4]; Dpi 35): improved motor nerve function; functional recovery (conduction velocity, CMAP amplitude and duration) (injured sciatic nerves [4]; aging mice 10-12 months, Dpi 35): enhances functional recovery; tolerability / side effects in mice [5]: without adverse effects on mice; SC process extension / morphology [6]: expansion of cellular processes; half-life [7]: ~1 h; percentage of myelinated axons (sciatic nerves; P7 and P15): increase; number of EGR2-expressing mature SCs in sciatic nerves (sciatic nerves; neonatal mice, daily from P1, P7): elevation; expression of myelination-associated genes Prx, Mbp, Mpz, Egr2 (sciatic nerves; sciatic nerves at P7 vs vehicle): significantly elevated; axon regeneration across the lesion site (optic nerve [8]): long-distance axon regeneration; number of CD68 inflammatory microglia/macrophage cells at the injury site (optic nerve [9]): decreased

Question: For `O=C(/C=C/c1ccc(CN(CCO)CCc2c[nH]c3ccccc23)cc1)NO` [LAQ824, (2E)-N-hydroxy-3-[4-[[(2-hydroxyethyl)[2-(1H-indol-3-yl)ethyl]amino]methyl]phenyl]-2-propenamide], which fold induction at 5 µM [1] is on record?
Answer: ≥ 5

Question: What does the source list for `Cc1ccc(NC(=O)CCCCCC(=O)Nc2ccccc2N)cc1` [PDA106, N1-(2-Aminophenyl)-N7-(4-methylphenyl)-heptanediamide]?
Answer: regeneration tracks within the tissue bridge (injured sciatic nerves [3]): opaque regeneration tracks were observed; percentages of MBP myelinating axons entering the bridge (injured sciatic nerves [3]): significantly higher; myelin sheath thickness in the regenerating bridge (injured sciatic nerves [3]): thicker myelin sheaths; percentage of Ki67+ cells (injured sciatic nerves [3]): decreased; proportion of EGR2+ maturing SCs in the tissue bridge (injured sciatic nerves [3]): increased; myelinated axons (injured sciatic nerves [3]): increase; myelin thickness of the intact sciatic nerves (injured sciatic nerves [3]): does not affect; CMAP amplitude (injured sciatic nerves [4]): increase; conduction velocity (injured sciatic nerves [4]): increase; level of acetylated PTEN (rat SC cultures; SC cultures): increased; p-AKT, p-PI3K and p-ERK levels (rat SC cultures; purified rat SCs): elevation; p-ERK levels (rat SC cultures; rat SCs, combined treatment with NRG1): further enhanced; p-ERK and p-AKT levels (rat SC cultures; rat SCs, single treatment): increased; SC process extension / morphology [6]: expansion of cellular processes; half-life [7]: ~8 h; clinical score (motor function) ([10]; 100 mg/kg i.p. daily for 10 days from PID 15): reduces clinical score; remyelination in the spinal cord / oligodendrocyte myelination in the CNS ([10]; EM of lesion areas at PID 25): promotes oligodendrocyte myelination

Question: With `COc1ccc(Cn2ccc3ccc(C(=O)NO)cc32)cc1` [PCI34051] as the compound, how does the “SC process extension / morphology” value [6] read?
Answer: minimal effects

Question: With `O=C(CCCCCCC(=O)Nc1ccccc1)NO` [SAHA, N-hydroxy-N'-phenyl-octanediamide] as the compound, how does the fold induction at 5 µM [1] read?
Answer: ≥ 5
